Literature values as cited in US20150174235A1, “VACCINE” (Bionor Immuno AS, priority 2012, published 2015).

Test system: HIV-specific T-cells
Conditions: for IL-2 production by CD8 T-cells / lytic capacity of polyfunctional HIV specific CD8+ T cells / number of polyfunctional CD4+ T-cells / proliferation of CD4+ T cells / Gag antigen epitopes recognized: IMiD present during in vitro T-cell stimulation; for Gag antigen epitopes recognized: also at lower antigen peptide concentrations; for IFN-γ production by CD8+ T-cells and CD4 T-cells: after antigen stimulation, IMiD present

SMILES | IL-2 production by CD8 T-cells | lytic capacity of polyfunctional HIV specific CD8+ T cells | number of polyfunctional CD4+ T-cells | proliferation of CD4+ T cells | Gag antigen epitopes recognized | IFN-γ production by CD8+ T-cells and CD4 T-cells
Nc1cccc2c1CN(C1CCC(=O)NC1=O)C2=O (stereo not drawn) [Lenalidomide] | increased | enhanced | increased | reduced | more | detectable
Nc1cccc2c1C(=O)N(C1CCC(=O)NC1=O)C2=O (stereo not drawn) [pomalidomide] | increased | enhanced | increased | reduced | more | detectable
